Patent publication US20100324049A1, “DIARYL KETIMINE DERIVATIVE HAVING ANTAGONISM AGAINST MELANIN-CONCENTRATING HORMONE RECEPTOR” (priority 2007, published 2010)

Molecular target: T1, human MCH-1R (Homo sapiens, UniProt Q99705)
T1 construct: expressed in transfected cells; host or cells: CHO-K1 (American Type Culture Collection), plasmid vector pEF/myc/cyto
Experiment: MCH binding inhibition test
Settings: inhibition of specific [125I]MCH (50 pM) binding; membrane specimen from MCH-1R-expressing CHO-K1 cells; 25° C., 1 hour
Source text: A cDNA sequence encoding human MCH-1R [FEBS Letters, Vol. 398, 253 (1996); Biochimica et Biophisica Acta, Vol. 1401, 216 (1998)] was cloned into a plasmid vector pEF/myc/cyto (manufactured by In Vitro Gene). The expression plasmid thus obtained was transfected into host cells CHO-K1 (American Type Culture Collection) by using lipofectAMINE PLUS reagent (manufactured by Life Technologies) to thereby give MCH-1R-expressing cells.
A membrane specimen prepared from the MCH-1R-expressing cells was incubated together with a test compound and 50 pM of [^125I]MCH (manufactured by NEN) in an assay buffer (a 50 mM Tris buffer (pH7.4) containing 10 mM of magnesium chloride, 2 mM of ethylenediaminetetracetic acid, 0.01% of bacitracin and 0.2% of bovine serum albumin) at 25° C. for 1 hour, and then filtered through a glass filter GF/C (manufactured by Whatman). After washing the glass filter with a 50 mM Tris buffer (pH7.4) containing 10 mM of magnesium chloride, 2 mM of ethylenediaminetetracetic acid and 0.04% of Tween-20, the radioactivity on the glass filter was determined. Nonspecific binding was measured in the presence of 1 μM human MCH and the 50% inhibitory concentration (IC50) of the test compound to the specific binding to [^125I]MCH was determined. Table 1 indicates the results.

T1 sequence (Q99705 whole entry): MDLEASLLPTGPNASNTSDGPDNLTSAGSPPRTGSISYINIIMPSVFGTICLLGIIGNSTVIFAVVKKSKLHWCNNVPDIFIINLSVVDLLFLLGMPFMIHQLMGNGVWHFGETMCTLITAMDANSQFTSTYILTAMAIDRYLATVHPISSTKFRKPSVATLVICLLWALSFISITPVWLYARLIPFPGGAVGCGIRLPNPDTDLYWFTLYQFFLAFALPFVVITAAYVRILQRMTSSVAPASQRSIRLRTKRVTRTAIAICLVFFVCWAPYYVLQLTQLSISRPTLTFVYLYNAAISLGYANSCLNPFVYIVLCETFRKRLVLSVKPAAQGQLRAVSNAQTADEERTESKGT

Structure (SMILES) | IC50 [nM]
CCO/N=C(\c1ccc(F)c(F)c1)c1ccc(CN2CCC(c3cn(C)c4cnccc34)CC2)cn1 [Example 3-33, (E)-(3,4-Difluorophenyl)(5-{[4-(1-methyl-1H-pyrrolo[2,3-c]pyridin-3-yl)piperidin-1-yl]methyl}pyridin-2-yl)methanone O-ethyloxime] | 0.11
CS(=O)(=O)CO/N=C(\c1ccc(F)c(F)c1)c1ccc(CN2CCC(c3ccc(F)nc3)CC2)cn1 [Example 3-53, (E)-(3,4-Difluorophenyl)(5-{[4-(6-fluoropyridin-3-yl)piperidin-1-yl]methyl}pyridin-2-yl)methanone O-[(methylsulfonyl)methyl]oxime] | 6.7
CCO/N=C(\c1ccc(F)c(F)c1)c1ccc(CN2CCC(c3ccn4ccnc4c3)CC2)cn1 [Example 3-26, (E)-(3,4-Difluorophenyl){5-[(4-imidazo[1,2-a]pyridin-7-ylpiperidin-1-yl)methyl]pyridin-2-yl)methanone O-ethyloxime] | 0.27

Second part, the compound after the results:

IC50 [nM] | Structure (SMILES)
9.7 | Fc1ccc(C2CCN(Cc3cnc(/C(=N/OC4CC4)c4ccc(F)c(F)c4)nc3)CC2)cn1 [Example 4-1, (E)-(3,4-difluorophenyl)(5-{[4-(6-fluoropyridin-3-yl)piperidin-1-yl]methyl}pyrimidin-2-yl)methanone-O-cyclopropyloxime]
11.2 | CC(C)(O)CO/N=C(\c1ccc(F)c(F)c1)c1ccc(CN2CCC(c3cnn4ncccc34)CC2)cn1 [Example 3-51, (E)-(3,4-Difluorophenyl){5-[(4-pyrazolo[1,5-b]pyridazin-3-ylpiperidin-1-yl)methyl]pyridin-2-yl}methanone O-(2-hydroxy-2-methylpropyl)oxime]
